Measurements taken from ChEMBL document CHEMBL1201862, “PubChem BioAssay data set” (2004).
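Where inhibition never reached the appropriate level, the endpoint shown equals the highest concentration tested. Otherwise, values were interpolated linearly from a five-concentration, 48-hour dose response in 96-well plates. The concentration for 50% growth inhibition is given as GI50.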 Active and inactive are the calls of the source. No stated cut-off is given here; in the data, active = GI50 up to about 1.1 µM and inactive = higher.

Columns and labels:
Experiment in all cases: NCI tumour cell line growth inhibition, 48 h
[1] = test system: COLO 205
[2] = test system: SF-295
[3] = test system: HCT-15
[4] = test system: OVCAR-8
[5] = test system: K562
[6] = test system: KM12
[7] = test system: U-251
[8] = test system: SF-268
[9] = test system: NCI-H460
[10] = test system: SN12C
[11] = test system: HL-60
[12] = test system: UACC-257
[13] = test system: UACC-62
[14] = test system: SK-OV-3
[15] = test system: ACHN
[16] = test system: SW-620
[17] = test system: UO-31
[18] = test system: A498

Structure (SMILES)	GI50 [1]	GI50 [2]	GI50 [3] [µM]	GI50 [4]	GI50 [5]	GI50 [6]	GI50 [7]	GI50 [8]	GI50 [9]	GI50 [10]	GI50 [11]	GI50 [12]	GI50 [13]	GI50 [14]	GI50 [15]	GI50 [16]	GI50 [17]	GI50 [18]
COC(=O)C1(C(=O)OC)CC(=O)c2cc3c(cc2-c2c(cc(OC)c(OC)c2OC)C1)OCO3	183 µM (inactive)	80.4 µM (inactive)	204	139 µM (inactive)	139 µM (inactive)	71.6 µM (inactive)	> 211 µM (inactive)	> 211 µM (inactive)	> 211 µM (inactive)	> 211 µM (inactive)	67.1 µM (inactive)	139 µM (inactive)	109 µM (inactive)	> 211 µM (inactive)	> 211 µM (inactive)	> 211 µM (inactive)		
Cc1cc(C)c(S(=O)(=O)ONC(=O)OC(C)(C)C)c(C)c1	> 100 µM (inactive)	> 100 µM (inactive)	> 100	> 100 µM (inactive)	> 100 µM (inactive)	> 100 µM (inactive)	> 100 µM (inactive)	> 100 µM (inactive)	> 100 µM (inactive)	> 100 µM (inactive)	> 100 µM (inactive)	> 100 µM (inactive)	> 100 µM (inactive)	> 100 µM (inactive)	> 100 µM (inactive)	> 100 µM (inactive)	> 100 µM (inactive)	> 100 µM (inactive)
N[C@H](C(=O)O)[C@@H](Cl)CC(=O)O	> 100 µM (inactive)	> 100 µM (inactive)	> 100	> 100 µM (inactive)	> 100 µM (inactive)	> 100 µM (inactive)	> 100 µM (inactive)	> 100 µM (inactive)	> 100 µM (inactive)	> 100 µM (inactive)	> 100 µM (inactive)	> 100 µM (inactive)	> 100 µM (inactive)	> 100 µM (inactive)	> 100 µM (inactive)	> 100 µM (inactive)	> 100 µM (inactive)	> 100 µM (inactive)
COc1ccccc1NC(=O)C1=C(C)NC(C)=C(C(=O)Nc2ccccc2OC)C1c1ccc(C)cc1	12.6 µM (inactive)	68.4 µM (inactive)	33.1	58.9 µM (inactive)	18.2 µM (inactive)	43 µM (inactive)	> 100 µM (inactive)	> 100 µM (inactive)	31.8 µM (inactive)	> 100 µM (inactive)		51.5 µM (inactive)	65.3 µM (inactive)	> 100 µM (inactive)	17.3 µM (inactive)	> 100 µM (inactive)	43 µM (inactive)	23.3 µM (inactive)
CN(C)c1nc(N(C)C)n2nc(-c3ccccc3[N+](=O)[O-])nc2n1	70.1 µM (inactive)	> 100 µM (inactive)	16.3	> 100 µM (inactive)	> 100 µM (inactive)	> 100 µM (inactive)	> 100 µM (inactive)	> 100 µM (inactive)	78.7 µM (inactive)	> 100 µM (inactive)	> 100 µM (inactive)	> 100 µM (inactive)	> 100 µM (inactive)	> 100 µM (inactive)	> 100 µM (inactive)	10.1 µM (inactive)	> 100 µM (inactive)	> 100 µM (inactive)
O=C(Nc1ccc(F)cc1)C(=O)C(C1OC(=O)c2ccccc21)[N+](=O)[O-] (stereo not drawn)	> 100 µM (inactive)	> 100 µM (inactive)	> 100	> 100 µM (inactive)	> 100 µM (inactive)	> 100 µM (inactive)	> 100 µM (inactive)	> 100 µM (inactive)	> 100 µM (inactive)		> 100 µM (inactive)	> 100 µM (inactive)	> 100 µM (inactive)	> 100 µM (inactive)	> 100 µM (inactive)	> 100 µM (inactive)	> 100 µM (inactive)	> 100 µM (inactive)
CCC(=O)N(O)C(C)(C)C	> 100 µM (inactive)	> 100 µM (inactive)	> 100	> 100 µM (inactive)	> 100 µM (inactive)	> 100 µM (inactive)	> 100 µM (inactive)	> 100 µM (inactive)	> 100 µM (inactive)	> 100 µM (inactive)	> 100 µM (inactive)	> 100 µM (inactive)	> 100 µM (inactive)	> 100 µM (inactive)	> 100 µM (inactive)	> 100 µM (inactive)	> 100 µM (inactive)	
O=C(Oc1ccc2c(-c3ccccc3)c(C(=O)Nc3ccc(Cl)cc3)c(=O)oc2c1)c1ccccc1	> 100 µM (inactive)	> 100 µM (inactive)	> 100	> 100 µM (inactive)	> 100 µM (inactive)	> 100 µM (inactive)	> 100 µM (inactive)		> 100 µM (inactive)	> 100 µM (inactive)	> 100 µM (inactive)	> 100 µM (inactive)	> 100 µM (inactive)	> 100 µM (inactive)	> 100 µM (inactive)	> 100 µM (inactive)	> 100 µM (inactive)	
COC1=CC(=O)[C@]2(C)[C@H](C1=O)C(C)[C@H]2c1ccc(OC)cc1 (stereo partly drawn)	> 100 µM (inactive)	> 100 µM (inactive)	> 100	> 100 µM (inactive)	> 100 µM (inactive)	> 100 µM (inactive)	> 100 µM (inactive)	> 100 µM (inactive)	> 100 µM (inactive)		> 100 µM (inactive)	91.6 µM (inactive)	> 100 µM (inactive)	> 100 µM (inactive)	> 100 µM (inactive)	> 100 µM (inactive)	82 µM (inactive)	> 100 µM (inactive)
CCCC(O)c1ccc2[nH]c3c(C)cc([N+](=O)[O-])c(C)c3c2c1 (stereo not drawn)	93.1 µM (inactive)	95.1 µM (inactive)	> 100	> 100 µM (inactive)	57.4 µM (inactive)	> 100 µM (inactive)		> 100 µM (inactive)	> 100 µM (inactive)	> 100 µM (inactive)	> 100 µM (inactive)	> 100 µM (inactive)			> 100 µM (inactive)	99.1 µM (inactive)	> 100 µM (inactive)	
CCOC(=O)C(CC/C=C\c1ccccc1)N1CCC[C@H]1C(=O)OC (stereo partly drawn)	> 100 µM (inactive)	> 100 µM (inactive)		> 100 µM (inactive)	49.4 µM (inactive)	> 100 µM (inactive)	> 100 µM (inactive)	> 100 µM (inactive)	> 100 µM (inactive)	> 100 µM (inactive)	35.8 µM (inactive)	> 100 µM (inactive)	> 100 µM (inactive)	> 100 µM (inactive)	> 100 µM (inactive)	> 100 µM (inactive)	> 100 µM (inactive)	> 100 µM (inactive)
O=C1C(Cl)C(c2cccc(O)c2)N1n1cnc2ccccc2c1=O (stereo not drawn)	> 100 µM (inactive)	> 100 µM (inactive)	> 100	> 100 µM (inactive)	49.1 µM (inactive)		> 100 µM (inactive)	> 100 µM (inactive)	> 100 µM (inactive)	> 100 µM (inactive)	64.7 µM (inactive)	> 100 µM (inactive)	> 100 µM (inactive)	> 100 µM (inactive)	> 100 µM (inactive)	> 100 µM (inactive)	15 µM (inactive)	
CC1CC(=O)c2c(ccc3c2C(=O)c2cccc(O)c2C3=O)C1 (stereo not drawn)	5.75 µM (inactive)	10.9 µM (inactive)	9.14	2.56 µM (inactive)	2.77 µM (inactive)	12.7 µM (inactive)	11.4 µM (inactive)	10.4 µM (inactive)	4.62 µM (inactive)		2.77 µM (inactive)	5.89 µM (inactive)	8.53 µM (inactive)	19.3 µM (inactive)		4.25 µM (inactive)	11.5 µM (inactive)	14 µM (inactive)
O=C(N/C(=C\c1ccc(/C=C(\NC(=O)c2ccccc2)c2nc3ccccc3s2)cc1)c1nc2ccccc2s1)c1ccccc1	5.12 µM (inactive)	4.5 µM (inactive)	4.6	2.34 µM (inactive)	5.38 µM (inactive)	8.45 µM (inactive)	2.59 µM (inactive)	6.3 µM (inactive)	4.25 µM (inactive)	3.99 µM (inactive)	1.71 µM (inactive)	5.18 µM (inactive)	2.37 µM (inactive)		4.59 µM (inactive)	3.84 µM (inactive)	2.86 µM (inactive)	17.1 µM (inactive)
O=[N+]([O-])c1ccc2nc(/C(=N/Nc3ccccc3)C(O)c3ccco3)c(O)nc2c1 (stereo not drawn)	> 100 µM (inactive)	> 100 µM (inactive)	> 100	> 100 µM (inactive)	> 100 µM (inactive)	> 100 µM (inactive)	> 100 µM (inactive)	25.4 µM (inactive)	> 100 µM (inactive)	> 100 µM (inactive)	19.9 µM (inactive)	> 100 µM (inactive)	45.7 µM (inactive)		> 100 µM (inactive)	> 100 µM (inactive)	86.5 µM (inactive)	> 100 µM (inactive)
COC(=O)C1=C(C(=O)OC)C(C(=O)OC)C(C(=O)OC)=C1C(=O)OC	> 100 µM (inactive)	> 100 µM (inactive)	> 100	> 100 µM (inactive)	> 100 µM (inactive)	> 100 µM (inactive)	> 100 µM (inactive)	> 100 µM (inactive)	> 100 µM (inactive)	> 100 µM (inactive)	> 100 µM (inactive)	> 100 µM (inactive)	> 100 µM (inactive)	> 100 µM (inactive)	> 100 µM (inactive)	> 100 µM (inactive)	> 100 µM (inactive)	
